Where “and” joins values, the source holds several entries; their conditions need not be identical. Equal values may be shown once. Results filed as inconclusive are left out. Starred links: 1 amine or outer side, 2 acyl side, 3 side chain; linkers in the order of their positions; H or OH if unused. Positions of bridges follow the written chain, without caps; N, C: chain ends. Non-standard residues stand in square brackets, D forms with d. Residues, ends and D or L forms follow the SMILES beside them. Chains are numbered I, II in the order given. Actinocin(9to1) = Cc1c2oc3c(C)ccc(C(=O)[*:1])c3nc-2c(C(=O)[*:2])c(N)c1=O; aThr = C[C@H](O)[C@H](N)C(=O)O; NMeV = CN[C@H](C(=O)O)C(C)C; Sar = CNCC(=O)O

The subject of the assay is CD8F1 mice, subcutaneous mammary adenocarcinoma, T/C%. Kind of assay: NCI In Vivo Anticancer Drug Screen. Data for tumor model Mammary Adenocarcinoma CD8F1 (subcutaneous) in CD8F1. The following applies: higher = larger tumour. The method, boiled down: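 Transplantable tumors were established in mice, animals were dosed with compound or vehicle, and survival or tumor size was then measured in both groups. The treated result was divided by the control result.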

Where [1] appears, read: endpoint: median tumor weight (est.), dose: 6.25 mg/kg/injection, schedule: Q07DX005 (ip), vehicle: saline.
Setting [2] is: endpoint: median tumor weight (est.), dose: 6.25 mg/kg/injection, schedule: Q07DX005 (ip), vehicle: suspension in saline.
Where [3] appears, read: endpoint: median tumor weight (est.), dose: 12.5 mg/kg/injection, schedule: Q07DX005 (ip), vehicle: suspension in saline.
[4] abbreviates: endpoint: median tumor weight (est.), dose: 25.0 mg/kg/injection, schedule: Q07DX005 (ip), vehicle: saline.
[5] abbreviates: endpoint: median tumor weight (est.), dose: 50.0 mg/kg/injection, schedule: Q07DX005 (ip), vehicle: saline.
Where [6] appears, read: endpoint: median tumor weight (est.), dose: 50.0 mg/kg/injection, schedule: Q07DX005 (ip), vehicle: suspension in saline.
Where [7] appears, read: endpoint: median tumor weight (est.), dose: 100.0 mg/kg/injection, schedule: Q07DX005 (ip), vehicle: suspension in saline.
The mark [8] stands for this setting: endpoint: median tumor weight change, dose: 62.5 mg/kg/injection, schedule: Q01DX001 (ip), vehicle: water.
Setting [9] is: endpoint: median tumor weight change, dose: 125.0 mg/kg/injection, schedule: Q01DX001 (ip), vehicle: water.

Consider `CN1C(=O)CC2(CCN(CCCC(=O)c3ccc(F)cc3)CC2)C1=O`, for which the T/C reads like this: under setting [1], 112 % of control; under setting [2], 52 % of control; (endpoint: median tumor weight (est.), dose: 12.5 mg/kg/injection, schedule: Q07DX005 (ip), vehicle: saline) 62 % of control; under setting [3], 108 % of control; under setting [4], 170 % of control; under setting [5], 117 % of control. Further, the T/C is 258 % of control under setting [6] and 122 % of control under setting [7].
For `Cc1ccccc1-[n+]1noc(N)n1`, the T/C (endpoint: median tumor weight change, dose: 31.25 mg/kg/injection, schedule: Q01DX001 (ip), vehicle: water) was 72 % of control; the T/C under setting [8] is 87 % of control; the T/C under setting [9] is 29 % of control.
For the compound `CN=C(NC#N)NCCSCc1nc[nH]c1C`, the T/C (endpoint: median tumor weight change, dose: 250.0 mg/kg/injection, schedule: Q01DX001 (ip), vehicle: Klucel (hydroxypropylcellulose) (HPC)) was 57 % of control.
Turning to `O=c1[nH]cnc2c1ccn2C1OC(CO)C(O)C1O` (centres undefined), the T/C (endpoint: median tumor weight change, dose: 24.0 mg/kg/injection, schedule: Q01DX001 (ip), vehicle: saline) is 74 % of control and the T/C (endpoint: median tumor weight change, dose: 48.0 mg/kg/injection, schedule: Q01DX001 (ip), vehicle: saline) is 62 % of control.
In the case of `C[C@@]12C(=O)OC(=O)[C@]1(C)[C@H]1CC[C@@H]2O1`, the T/C (endpoint: median tumor weight change, dose: 0.31 mg/kg/injection, schedule: Q01DX001 (ip), vehicle: Klucel (hydroxypropylcellulose) (HPC)) was 100 % of control and the T/C (endpoint: median tumor weight change, dose: 1.25 mg/kg/injection, schedule: Q01DX001 (ip), vehicle: Klucel (hydroxypropylcellulose) (HPC)) was 118 % of control.
As to `COc1cc(C)c2c(c1C=O)Oc1c(c(C)c(O)c3c1C(O)OC3=O)OC2=O` (centres undefined), the T/C (endpoint: mean tumor weight, dose: 3.12 mg/kg/injection, schedule: Q07DX005 (ip), vehicle: saline) was 42 % of control; the T/C (endpoint: mean tumor weight, dose: 6.25 mg/kg/injection, schedule: Q07DX005 (ip), vehicle: saline) was 49 % of control; the T/C (endpoint: mean tumor weight, dose: 25.0 mg/kg/injection, schedule: Q07DX005 (ip), vehicle: saline) is 168 % of control; the T/C (endpoint: mean tumor weight, dose: 50.0 mg/kg/injection, schedule: Q07DX005 (ip), vehicle: saline) is 61 % of control; the T/C (endpoint: median tumor weight (est.), dose: 3.12 mg/kg/injection, schedule: Q07DX005 (ip), vehicle: saline) was 97 % of control; the T/C (endpoint: median tumor weight (est.), dose: 3.12 mg/kg/injection, schedule: Q07DX005 (ip), vehicle: suspension in saline) was 89 % of control. Also, the T/C by setting is: under setting [1], 114 % of control; under setting [2], 104 % of control; under setting [3], 94 % of control; under setting [4], 75 % of control; (endpoint: median tumor weight (est.), dose: 25.0 mg/kg/injection, schedule: Q07DX005 (ip), vehicle: suspension in saline) 96 % of control; under setting [5], 96 % of control. The T/C by setting is: under setting [6], 88 % of control; under setting [7], 90 % of control.
On to `Cc1c2oc3c(C)ccc(C(=O)N[C@@H]4C(=O)N[C@H](C(C)C)C(=O)N5CCC[C@H]5C(=O)N(C)CC(=O)N(C)[C@@H](C(C)C)C(=O)O[C@H]4C)c3nc-2c(C(=O)N[C@@H]2C(=O)N[C@H](C(C)C)C(=O)N3CCC[C@H]3C(=O)N(C)CC(=O)N(C)[C@@H](C(C)C)C(=O)O[C@H]2C)c(N)c1=O` (I: [aThr][dV]P[Sar][NMeV] / II: [aThr][dV]P[Sar][NMeV]; ester I:1-I:C, II:1-II:C; linker I:N-II:N via Actinocin(9to1)), for which the T/C (endpoint: mean tumor weight, dose: 0.02 mg/kg/injection, schedule: Q01DX009 (ip), vehicle: saline) is 98 % of control; the T/C (endpoint: mean tumor weight, dose: 0.03 mg/kg/injection, schedule: Q01DX009 (ip), vehicle: saline + alcohol) is 73 % of control; the T/C (endpoint: mean tumor weight, dose: 0.04 mg/kg/injection, schedule: Q01DX009 (ip), vehicle: saline + alcohol) is 65 % of control; the T/C (endpoint: mean tumor weight, dose: 0.04 mg/kg/injection, schedule: Q01DX009 (ip), vehicle: saline) was 28 % of control; the T/C (endpoint: mean tumor weight, dose: 0.1 mg/kg/injection, schedule: Q07DX007 (ip), vehicle: saline) was 36 % of control; the T/C (endpoint: mean tumor weight, dose: 0.2 mg/kg/injection, schedule: Q07DX007 (ip), vehicle: saline) is 5 % of control. For the same compound, the T/C (endpoint: median tumor weight (est.), dose: 0.03 mg/kg/injection, schedule: Q07DX005 (ip), vehicle: saline) is 56 % of control; the T/C (endpoint: median tumor weight (est.), dose: 0.15 mg/kg/injection, schedule: Q07DX005 (ip), vehicle: saline) was 34 % of control and 49 % of control; the T/C (endpoint: median tumor weight (est.), dose: 0.3 mg/kg/injection, schedule: Q07DX005 (ip), vehicle: saline) is 24 % of control; the T/C (endpoint: median tumor weight (est.), dose: 12.5 micrograms/kg/injection, schedule: Q07DX005 (ip), vehicle: saline) is 66 % of control; the T/C (endpoint: median tumor weight (est.), dose: 25.0 micrograms/kg/injection, schedule: Q07DX005 (ip), vehicle: saline) was 60 % of control; the T/C (endpoint: median tumor weight (est.), dose: 50.0 micrograms/kg/injection, schedule: Q07DX005 (ip), vehicle: saline) is 70 % of control. In addition, the T/C was 38 % of control (endpoint: median tumor weight (est.), dose: 100.0 micrograms/kg/injection, schedule: Q07DX005 (ip), vehicle: saline); 9 % of control (endpoint: median tumor weight (est.), dose: 200.0 micrograms/kg/injection, schedule: Q07DX005 (ip), vehicle: saline); 55 % of control (endpoint: median tumor weight change, dose: 0.12 mg/kg/injection, schedule: Q01DX001 (ip), vehicle: saline); 30 % of control and 39 % of control (endpoint: median tumor weight change, dose: 0.25 mg/kg/injection, schedule: Q01DX001 (ip), vehicle: saline); 7 % of control and 27 % of control (endpoint: median tumor weight change, dose: 0.5 mg/kg/injection, schedule: Q01DX001 (ip), vehicle: saline).
As for `CSCS(=O)C[C@H](CO)NC(=O)/C=C/c1c(C)[nH]c(=O)[nH]c1=O` (some centres undefined), the T/C by setting is: (endpoint: median tumor weight (est.), dose: 0.12 mg/kg/injection, schedule: Q07DX005 (ip), vehicle: saline) 100 % of control; (endpoint: median tumor weight (est.), dose: 0.25 mg/kg/injection, schedule: Q07DX005 (ip), vehicle: saline) 76 % of control; (endpoint: median tumor weight (est.), dose: 0.5 mg/kg/injection, schedule: Q07DX005 (ip), vehicle: saline) 50 % of control; (endpoint: median tumor weight (est.), dose: 4.0 mg/kg/injection, schedule: Q07DX005 (ip), vehicle: saline) 10 % of control.
`CS(=O)(=O)[O-].CS(=O)(=O)[O-].NC1CCCCC1N.[Pt+4]` (centres undefined): the T/C by setting is: (endpoint: median tumor weight (est.), dose: 0.63 mg/kg/injection, schedule: Q07DX005 (ip), vehicle: dextrose) 96 % of control; (endpoint: median tumor weight (est.), dose: 5.0 mg/kg/injection, schedule: Q07DX005 (ip), vehicle: dextrose) 4 % of control and 8 % of control.
`Cc1c(N)nc(C(CC(N)=O)NCC(N)C(N)=O)nc1C(=O)NC(C(=O)NC(C)C(O)C(C)C(=O)NC(C(=O)NCCc1nc(-c2nc(C(=O)NCCCNCCCc3ccccn3)cs2)cs1)C(C)O)C(OC1OC(CO)C(O)C(O)C1OC1OC(CO)C(O)C(OC(N)=O)C1O)c1cnc[nH]1` (centres undefined): the T/C is, setting by setting: (endpoint: median tumor weight (est.), dose: 0.37 mg/kg/injection, schedule: Q07DX005 (ip), vehicle: water) 45 % of control; (endpoint: median tumor weight (est.), dose: 0.75 mg/kg/injection, schedule: Q07DX005 (ip), vehicle: water) 76 % of control; (endpoint: median tumor weight (est.), dose: 1.5 mg/kg/injection, schedule: Q07DX005 (ip), vehicle: water) 104 % of control; (endpoint: median tumor weight (est.), dose: 3.2 mg/kg/injection, schedule: Q07DX005 (ip), vehicle: water) 101 % of control; (endpoint: median tumor weight (est.), dose: 3.5 mg/kg/injection, schedule: Q07DX005 (ip), vehicle: water) 166 % of control; (endpoint: median tumor weight (est.), dose: 6.0 mg/kg/injection, schedule: Q07DX005 (ip), vehicle: water) 100 % of control. For the same compound, the T/C by setting is: (endpoint: median tumor weight (est.), dose: 6.4 mg/kg/injection, schedule: Q07DX005 (ip), vehicle: water) 52 % of control; (endpoint: median tumor weight (est.), dose: 7.0 mg/kg/injection, schedule: Q07DX005 (ip), vehicle: water) 104 % of control; (endpoint: median tumor weight (est.), dose: 12.8 mg/kg/injection, schedule: Q07DX005 (ip), vehicle: water) 12 % of control; (endpoint: median tumor weight (est.), dose: 14.0 mg/kg/injection, schedule: Q07DX005 (ip), vehicle: water) 53 % of control; (endpoint: median tumor weight (est.), dose: 28.0 mg/kg/injection, schedule: Q07DX005 (ip), vehicle: water) 3 % of control.
Turning to `NC(CNC(=O)CBr)C(=O)O` (centres undefined), the T/C is, setting by setting: under setting [8], 95 % of control; under setting [9], 77 % of control.
Consider `Cc1c2cc[n+](C)cc2c(C)c2c1[nH]c1ccc(O)cc12`, for which the T/C is, setting by setting: (endpoint: median tumor weight change, dose: 0.62 mg/kg/injection, schedule: Q01DX001 (ip), vehicle: saline) 101 % of control; (endpoint: median tumor weight change, dose: 1.25 mg/kg/injection, schedule: Q01DX001 (ip), vehicle: saline) 67 % of control; (endpoint: median tumor weight change, dose: 2.5 mg/kg/injection, schedule: Q01DX001 (ip), vehicle: saline) 60 % of control.
